Reference: patent US7786257B2, “Signal-1/signal-2 bifunctional peptide inhibitors” (priority 2000, dated 2010)

Experiments:
NOD mice = experiment: Lymphocytic infiltration of pancreatic islets (insulitis) in NOD mice, histological scoring; assay type: in vivo, mouse; details: NOD males; for intact / normal islets without infiltration (grade-0 islets), percentage of islets examined: GAD65 peptide in CFA, two i.v. injections of 40 nanomoles
Excerpt: To evaluate the disease process by immunohistology (see, e.g., FIG. 12A-D), spleen, pancreas, or other target organs, e.g., the CNS for the MDP peptide BPI, or lung for the RSV peptide BPI, were removed from euthanized mice of each group and prepared for histology by fixing in neutral buffered formalin and embedding in paraffin, or snap frozen in O.C.T. medium. For scoring inflammation, minimums of five sections from each mouse were used to assess the blocking affect of a given BPI. For characterization of standard T-cell markers on cellular infiltrates, biotinylated mAb to various cell surface antigens will be incubated individually with the Cryostat sections (2 hours), followed by avidin-alkaline phosphatase (Vector laboratories). Alternatively, cell subsets will be phenotyped by standard flow cytometry methods as described in Murray et al., 24 Eur. J. Immunol. 2337-2344 (1994); Murray; 19 Immunology Today 157-163; and Schountz et al., 157 The Journal of Immunology 3893-3901 (1996). Finally, the students t-test or ANOVA will be used to estimate the statistical significance of differences observed between groups and individual mice.
These studies sought to confirm that the BPI containing the immunodominant GAD65 TCR epitope (EGAD-BPI) was biologically active in vivo and inhibited the development of pancreatic inflammation. Groups of three normal glycemic NOD males (8 weeks old) were immunized with the GAD65 (208-217) peptide in CFA as described in Example 4. The control group received PBS, and separate experimental groups received either the EGAD-BPI, the GAD peptide alone (i.e., the T-cell receptor epitope), or the CD11a peptide alone(i.e., the second signal receptor moiety) by two intravenous injections as described in Example 4. On day 10, the pancreata were removed to 10% PBS-buffered formalin, embedded in paraffin, and five-micron serial sections were examined histologically for mononuclear cell infiltration as previously described by Yoon, et al., Control of Autoimmune Diabetes in NOD Mice by GAD Expression or Suppression in β Cells, 284 Science 1183-1187 (1999), the entirety of which is hereby incorporated by reference.

[1] = test system: live APC (spleenocytes) from NOD (I-A^g7), BALB/c, A.SW, A.BY mice; experiment: Flow cytometry of biotinylated peptide binding to live APC (spleenocytes) of inbred mouse strains; details: biotinylated peptide, live spleenocytes, flow cytometry
Experimental: Specifically, it was verified that the peptide binds to MHC molecules on live APC. Briefly, spleen cell density-gradient fractions (from mice), or PBL, or APC lines (from humans) were incubated in round bottom 96-well plates with increasing concentrations of individual biotinylated peptides at 37° C., 5% CO2 for 16 hours. Following binding of the BPI to the APC, Avidin-FITC was incubated with the cells on ice for 30 minutes, followed by biotinylated anti-Avidin for 1 hour, then again with Avidin-FITC. For BPI titrations, increasing concentrations (0.1-100 μM) of the biotinylated derivatives in sterile 0.5% BSA-PBS were incubated with the APC for 16 hours as above. […] Three-color analyses used Cy-Chrome or PE-conjugated antibodies to known surface markers of APC that were commercially available. Avidin-FITC and biotinylated anti-Avidin detection of the bound peptide was as previously described in Murray et al., 24 Eur. J. Immunol. 2337-2344 (1994); Murray; 19 Immunology Today 157-163; and Schountz et al., 157 The Journal of Immunology 3893-3901 (1996). Slight modifications of this method were used to test peptide inhibition (i.e., peptide affinity) and co-capping to the MHC and ICAM molecules directly on the live APC surface. […] Unlabeled peptide was used in a competition assay to derive the relative affinity of the BPI for the APC and the ability of the BPI to crosslink the MHC and ICAM molecules on the APC was examined by cocapping ICAM with an anti-MHC mAb. Here, cells were incubated with the BPI. Next, an anti-MHC mAb was added. After 30 minutes at 37° C., the cells were transferred to ice and stained with PE-labeled anti-ICAM (FIG. 7).
To obtain biotinylated BPI, the synthesized EGAD BPI was biotinylated with NHS-Biotin as described in Murray et al., 24 Eur. J. Immunol. 2337-2344 (1994). Spleen cell density-gradient fractions from normal (unimmunized) NOD, BALB/c and other MHC congenic strains were incubated in round bottom 96-well plates with increasing concentrations of individual biotinylated peptides at 37° C., 5% CO2 for 16 hours. Following binding of the BPI to the APC, Avidin-FITC was incubated with the cells on ice for 30 minutes, followed bybiotinylated anti-Avidin for 1 hour, then again with Avidin-FITC. For BPI titrations, increasing concentrations (0.1-100 μM) of the biotinylated derivatives in sterile 0.5% BSA-PBS were incubated with the APC for 16 hours as above. Three-color analyses used Cy-Chrome or PE-conjugated anti-B220 (mAb RA3-6B2 (CD45R B-cell marker), anti-MHC class II (KH74 or 10-3.62 mAb), or anti-ICAM-1 (3E2 mAb); (all purchased from PharMingen, San Diego, Calif.). Bound peptide was detected with avidin-FITC/biotinylated anti-avidin/avidin-FITC on live cells gated by forward/side scatter analysis. Controls contained all detecting reagents in absence of the biotinylated peptide; 20,000 events were analyzed for each histogram with a FACScan (Becton-Dickinson) flow cytometer.
To verify antigenic peptide binding to live APC, initial EGAD-BPI were screened for selective binding to NOD (I-A^g7) APC and assayed for simultaneous binding using monoclonal antibodies against either MHC-II or ICAM-1 by flow cytometry methods using live APC (Murray et al., 24 Eur. J. Immunol. 2337-2344 (1994); Murray; 19 Immunology Today 157-163; and Schountz et al., 157 The Journal of Immunology 3893-3901 (1996)). In this assay, increasing concentrations of the biotinylated-BPI, -CD11a(237-247) or -GAD65(208-217) peptide were incubated overnight with spleenocytes from each inbred strain. Bound peptide was detected with amplification of avidin-FITC fluorescence by the use of a biotinylated anti-avidin reagent, followed by a second round of avidin-FITC binding. Biotinylated peptide was incubated with 10^6 viable cells at a peptide concentrations of 50 μM. Bound peptide was detected with avidin-FITC/biotinylated anti-avidin-FITC. […]

Sequence	intact / normal islets without infiltration (grade-0 islets), percentage of islets examined (NOD mice; day 10)	preferential binding to NOD APC compared with other strains (BALB/c, A.SW, A.BY) [1]	preferential binding to NOD APC compared with other strains (BALB/c, A.SW, A.BY) ([1]; listed as LFA-1 (CD11a 237-247) peptide)	preferential binding to NOD APC compared with other strains (BALB/c, A.SW, A.BY) ([1]; listed as LFA-1 moiety)	mononuclear cell infiltration of islets (insulitis), in words (NOD mice; day 10, histology)	islets scored grade 2 or above (NOD mice; two i.v. injections, day 10)	preferential binding to NOD APC compared with other strains (BALB/c, A.SW, A.BY) ([1]; listed as GAD 65 moiety)
ITDGEATDSG (listed as Homo sapiens) [CD11a peptide, Signal-2 moiety (second signal receptor moiety) of EGAD-BPI, tested alone as control]	66.7%	did not bind preferentially to NOD APC	bound similarly to all strain spleenocytes	did not display this increased binding	–	–	–
EIAPVFVLLE (listed as Homo sapiens) [GAD65 peptide, reference compound]	62%	did not bind preferentially to NOD APC	–	–	showed the most insulitis	37.5%	did not display this increased binding
